Data: PMC5086919, “Antileukemic Scalarane Sesterterpenoids and Meroditerpenoid from Carteriospongia (Phyllospongia) sp., Induce Apoptosis via Dual Inhibitory Effects on Topoisomerase II and Hsp90” (Scientific Reports, 2016)
pIC50: −log10 of the molar value. Converted amounts (≈) assume the structure as drawn. “And” between values parts separate entries of the source, which are not always exact repeats. Equal entries are not always repeated. Where two headings read alike, the source gives them in different places.

What was measured:
[1] = tested on: Sup-T1 cells; test: MTT antiproliferative assay, lymphoma Sup-T1 cells; settings: Homo sapiens, SUP-T1, 72 h, read-out: IC50, cytotoxicity, Lymphoma Sup-T1
[2] = tested on: Molt 4 cells; test: Annexin V/PI apoptosis assay; format: cell-based, human
Description: The externalization of phosphatidylserine (PS) and membrane integrity were quantified using an annexin V- FITC staining kit[72]. In brief, 10^6 cells were grown in 35 mm diameter plates and were labeled with annexin V-FITC (10 μg/mL) and PI (20 μg/mL) prior to harvesting. After labeling, all plates were washed with a binding buffer and harvested. Cells were resuspended in the binding buffer at a concentration of 2 × 10^5 cells/mL before analysis by flow cytometer FACS-Calibur (Becton-Dickinson, San Jose, CA, USA) and CellQuest software. Approximately 10,000 cells were counted for each determination.

[3] = tested on: all leukemia and one lymphoma cell lines; test: MTT assay, summary statement for leukemia and lymphoma lines; settings: read-out: IC50 against all leukemia and one lymphoma cell lines
From the text: (§4) Several cancer cell lines including leukemia K562, Molt 4, and HL 60 cells, prostate cancer LNCaP cells, colon cancer DLD-1 cells and breast cancer T-47D cells were used to evaluate the antiproliferative activity.
(§5) The cell lines were obtained from the American Type Culture Collection (ATCC, Manassas, VA, USA). […] Dimethyl sulfoxide (DMSO), 3-(4,5-dimethylthiazol-2-yl)-2,5-diphenyl-tetrazolium bromide (MTT) and all other chemicals were purchased from Sigma-Aldrich (St. Louis, MO, USA).

[4] = tested on: Cal-27 cells; test: MTT antiproliferative assay, oral Cal-27 cells; settings: Homo sapiens, CAL-27, 72 h, read-out: IC50, cytotoxicity, Oral Cal-27
From the text: as §4, §5

[5] = tested on: HL 60 cells; test: MTT antiproliferative assay, leukemia HL 60 cells; settings: Homo sapiens, HL-60, 72 h, read-out: IC50, cytotoxicity, Leukemia HL 60
From the text: as §4, §5

[6] = tested on: ER stress-related proteins in Molt 4 cells; test: Western blot of ER stress-related proteins; format: cell-based, human; settings: 0.0625 μg/mL, time-dependent
Description: (§1) Oxidative stress is manifested by ROS overexpression and cannot be balanced by the available antioxidant machinery. Compound 1 can damage the integrity of mitochondria, which are the major production sites of the superoxide anion, […]. The induction of the intracellular formation of ROS by 1 was determined with a carboxyl derivative of fluorescein, carboxy-H2DCFDA dye using flow cytometric analysis. […] In addition, ROS generation could induce ER stress leading to mitochondria-related apoptosis. To further investigate if ER stress is involved in the apoptotic effect induced by 1, Western blot analysis was used to determine the expression of ER stress-related proteins. […] Furthermore, the effect of 1 on the release of intracellular Ca^2+, was evaluated using fluorescent calcium indicator, Fluo 3. […] The effect of 1 (0.0625 μg/mL) at different time intervals (0, 3, 6 and 9 h) on the level of nuclear DNA integrity was determined. […]
(§2) Cell lysates were prepared by treating the cells for 30 min in RIPA lysis buffer, 1% Nonidet P-40, 0.5% sodium deoxycholate, 0.1% sodium dodecyl sulphate (SDS), 1 mM sodium orthovanadate, 100 μg/mL phenylmethylsulfonyl fluoride and 30 μg/mL aprotinin) (all chemicals were from Sigma)[38]. The lysates were centrifuged at 20,000 × g for 30 min, and the protein concentration in the supernatant was determined using a BCA protein assay kit (Pierce). […]

[7] = tested on: Ca9-22 cells; test: MTT antiproliferative assay, oral Ca9-22 cells; settings: Homo sapiens, Ca9-22, 72 h, read-out: IC50, cytotoxicity, Oral Ca9-22
From the text: as §4, §5

[8] = tested on: Molt 4 cells; test: MTT antiproliferative assay, leukemia Molt 4 cells; format: cell-based; settings: Homo sapiens
[9] = tested on: γH2AX in Molt 4 cells; test: Western blot of γH2AX (DNA damage biomarker); format: cell-based, human; settings: 0, 0.0625, 0.125 and 0.25 μg/mL, 24 h
From the text: (§3) The ability of Topo II to generate DNA damage in the presence of Topo II-targeting agents led to the hypothesis that an important determinant of drug sensitivity was related to the overall level of Topo II[17]. […] Such findings encouraged us to evaluate the effect of the isolates on Topo II activity. In order to confirm whether the DNA damage-induced by the isolated sesterterpenoids involved the inhibition of Topo II activity, a cell-free DNA cleavage assay using an enzyme-mediated negatively supercoiled pHOT1 plasmid DNA was applied. […] These marine terpenoids suppressed Topo II activity, resulting in the inhibition of supercoiled DNA relaxation in a dose-dependent manner (Fig. 5A). […] To determine whether the apoptotic mechanism of these compounds affects γH2AX (as a biomarker of DNA damage) induction, Western blot analysis was employed to examine the activation of γH2AX.
Cell lysates were prepared by treating the cells for 30 min in RIPA lysis buffer, 1% Nonidet P-40, 0.5% sodium deoxycholate, 0.1% sodium dodecyl sulphate (SDS), 1 mM sodium orthovanadate, 100 μg/mL phenylmethylsulfonyl fluoride and 30 μg/mL aprotinin) (all chemicals were from Sigma)[38]. The lysates were centrifuged at 20,000 × g for 30 min, and the protein concentration in the supernatant was determined using a BCA protein assay kit (Pierce). Equal amounts of proteins were respectively separated by 7.5%, 10% or 12% of SDS-polyacrylamide gel electrophoresis and then were electrotransferred to a PVDF membrane. The membrane was blocked with a solution containing 5% non-fat dry milk TBST buffer (20 mM Tris-HCl, pH 7.4, 150 mM NaCl and 0.1% Tween 20) for 1 h and washed with TBST buffer. The protein expressions were monitored by immunoblotting using specific antibodies. These proteins were detected by an enhanced chemiluminescence kit (Pierce).

[10] = tested on: Molt 4 cells; test: MMP disruption, JC-1 staining flow cytometry; format: cell-based, human; settings: 0, 0.0625, 0.125 and 0.25 μg/mL, 24 h
Description: These assays were performed as described previously. […] In brief, the treated cells were labeled with a specific fluorescent dye for 30 min. After labeling, cells were washed with PBS and resuspended in PBS at a concentration of 1 × 10^6 cells/mL before analysis via flow cytometry.

[11] = biological target: T1, human topoisomerase II (Homo sapiens, UniProt P11388); test: Cell-free topoisomerase II DNA relaxation/cleavage assay with supercoiled pHOT1 plasmid DNA; format: biochemical; settings: compared with control supercoiled DNA
T1 construct: purchased Topogen
From the text: as §3
The assay was performed as described previously. […] Reactions were terminated by adding 2 μL of 10% SDS to facilitate trapping the enzyme in a cleavage complex, followed by the addition of 2.5 μL of proteinase K (50 μg/mL) to digest the bound protein (incubated at 37 °C for 15 min) and finally by adding 0.1 volume of the sample loading dye. The DNA products were analyzed via electrophoresis through vertical 2% agarose gels at 2 voltage/cm in 0.5 × TAE buffer. Gels were stained with ethidium bromide and photographed using an Eagle Eye II system (Stratagene, La Jolla, CA, USA). The quantitative analysis of the DNA Topo II activity was performed as described previously.

[12] = tested on: PARP and caspases in Molt 4 cells; test: Western blot of apoptosis-related proteins; format: cell-based, human; settings: 0.0625 μg/mL, time-dependent
Description: as §1, §2

T1 sequence (P11388 whole entry): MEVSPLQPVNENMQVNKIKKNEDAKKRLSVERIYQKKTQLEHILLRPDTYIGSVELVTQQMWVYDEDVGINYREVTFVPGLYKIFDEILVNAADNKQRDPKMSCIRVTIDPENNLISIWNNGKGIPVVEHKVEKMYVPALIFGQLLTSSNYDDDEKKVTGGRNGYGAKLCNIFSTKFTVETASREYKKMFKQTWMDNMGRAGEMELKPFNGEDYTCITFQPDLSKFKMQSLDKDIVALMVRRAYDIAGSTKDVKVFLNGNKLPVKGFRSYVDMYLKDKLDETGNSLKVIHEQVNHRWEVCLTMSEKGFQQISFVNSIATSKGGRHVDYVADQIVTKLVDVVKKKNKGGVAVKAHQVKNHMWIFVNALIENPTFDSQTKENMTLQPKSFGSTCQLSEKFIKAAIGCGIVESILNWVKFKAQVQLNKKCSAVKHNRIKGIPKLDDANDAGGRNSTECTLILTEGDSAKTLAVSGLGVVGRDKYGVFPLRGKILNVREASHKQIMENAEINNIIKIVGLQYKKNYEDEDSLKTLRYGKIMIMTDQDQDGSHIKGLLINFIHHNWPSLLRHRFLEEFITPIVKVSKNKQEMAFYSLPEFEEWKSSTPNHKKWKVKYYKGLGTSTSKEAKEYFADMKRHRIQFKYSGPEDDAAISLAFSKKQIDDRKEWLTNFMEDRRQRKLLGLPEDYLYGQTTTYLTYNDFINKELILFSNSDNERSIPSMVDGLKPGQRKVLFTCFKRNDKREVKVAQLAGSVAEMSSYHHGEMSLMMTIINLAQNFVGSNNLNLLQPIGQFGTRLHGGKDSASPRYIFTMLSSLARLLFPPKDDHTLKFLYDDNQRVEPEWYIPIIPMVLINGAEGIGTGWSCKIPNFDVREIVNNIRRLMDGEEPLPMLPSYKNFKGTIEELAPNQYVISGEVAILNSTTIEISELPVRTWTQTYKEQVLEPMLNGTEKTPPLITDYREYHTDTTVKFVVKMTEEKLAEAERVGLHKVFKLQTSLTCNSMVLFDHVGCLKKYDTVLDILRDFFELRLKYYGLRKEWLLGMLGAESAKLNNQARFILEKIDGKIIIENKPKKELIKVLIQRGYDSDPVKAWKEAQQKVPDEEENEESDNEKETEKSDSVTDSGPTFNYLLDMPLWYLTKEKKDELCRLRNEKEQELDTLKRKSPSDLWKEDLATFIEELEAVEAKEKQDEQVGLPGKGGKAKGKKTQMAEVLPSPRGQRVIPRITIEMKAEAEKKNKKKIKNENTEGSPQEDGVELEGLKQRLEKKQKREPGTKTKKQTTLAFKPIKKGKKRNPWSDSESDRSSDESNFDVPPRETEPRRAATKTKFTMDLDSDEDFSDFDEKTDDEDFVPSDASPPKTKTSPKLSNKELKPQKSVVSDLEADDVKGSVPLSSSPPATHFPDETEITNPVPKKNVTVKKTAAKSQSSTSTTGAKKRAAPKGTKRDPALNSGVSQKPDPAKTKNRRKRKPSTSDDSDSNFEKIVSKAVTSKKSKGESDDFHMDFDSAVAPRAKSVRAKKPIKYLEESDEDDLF

In the case of `CC[C@@]1(C)CCC[C@]2(C)[C@H]3C[C@@H](OC(=O)C[C@@H](C)O)[C@]4(C)[C@@H](C=O)C(C(C)=O)=CC[C@H]4[C@]3(C)CC[C@@H]12` (relative stereo) [Compound 1, 12β-(3′β-hydroxybutanoyloxy)-20,24-dimethyl-24-oxo-scalara-16-en-25-al], the IC50 [1] was 0.13 µg/mL (≈ 0.26 µM), the “apoptotic population of Molt 4 cells” value ([2]; 0, 0.0625, 0.125 and 0.25 μg/mL, 24 h, annexin-V/PI) was “increase in the apoptotic population” and the “lowest dose inducing mitochondrial dysfunction and apoptotic cell death” value ([2]; 24 h, flow cytometry) was 0.0625 µg/mL. For the same compound, the “concentration that triggered MMP disruption and apoptosis” value ([2]; Molt 4 cells, molar value in brackets) was 125 nM, the IC50 [3] was 0.01 µg/mL and 2.08 nM and the IC50 [4] was 0.56 µg/mL (≈ 1.12 µM). For the same compound, the IC50 [5] was 0.01 µg/mL (≈ 0.02 µM), the “levels of ER stress-related proteins” value [6] was “promoted the levels of Bip, Chop, Grp 94 as well as the activation and cleavage of ATF 6 but suppressed the levels of PERK and IRE 1” and the IC50 [7] was 0.1 µg/mL (≈ 0.2 µM). The IC50 ([8]; 72 h, read-out: IC50, cytotoxicity, Leukemia Molt 4) was 0.01 µg/mL, the pIC50 ([8]; molar value in brackets, read-out: antiproliferative activity (IC50), Molt 4) was 7.72 and the “expression of γH2AX” value [9] was “significantly enhanced the expression of γH2AX in a dose-dependent manner”. The mitochondrial membrane potential [10] was “disruption in mitochondrial membrane potential”, the inhibition at 0.08 µg/mL ([11]; 0.08 μg/mL) was 12% and the inhibition at 0.312 µg/mL ([11]; 0.312 μg/mL) was 13%. It also gave an inhibition at 1.25 µg/mL ([11]; 1.25 μg/mL) of 17%, an inhibition at 5 µg/mL ([11]; 5 μg/mL) of 20% and an inhibition at 20 µg/mL ([11]; 20 μg/mL) of 99%. For the same compound, the “PARP and caspase cleavages” value [12] was “significant increase of PARP, caspases-8 and −9 cleavages”.
